Experimental findings from article PMC6661831, “Molecular docking, synthesis, kinetics study, structure–activity relationship and ADMET analysis of morin analogous as Helicobacter pylori urease inhibitors” (BMC Chemistry, 2019) are described below.

One may read the IC50 as the concentration that inhibits the measured activity by half. By zone of inhibition is commonly meant the extent of the growth-free halo in a diffusion test. One may read the MIC as the lowest concentration found to suppress growth. Read a high MIC as a need for much substance.

Test [1] in a line: DPPH radical scavenging (antioxidant) assay. To be noted: DPPH 300 µM, 30 min, mean SEM. The text has this:
(§1) The novel synthesized Morin derivatives were examined for in- vitro urease inhibitory action by determining the ammonia concentration released during the reaction by indophenol technique as described by Weatherburn as well as for antioxidant nature by determining the ability of compounds to donate hydrogen and electrons using DPPH method.
DPPH method was adopted for measuring the antioxidant nature of the synthesized derivatives. According to this method synthesized compounds were allowed to react for 0.5 h. at 37 °C with stable free radical, 1, 1-diphenyl-2-picrylhydrazyl radical (DPPH). The DPPH was taken in a concentration of 300 µM. Decrease in value of absorption at […] was measured after the period of incubation using a microplate reader using ascorbic acid as a standard. Molecule which can donate a proton to DPPH and cause its reduction act as an antioxidant. Following reduction deep violet coloured DPPH solution changes to yellow depending upon the nature of antioxidant compound, which brings a measurable decrease in value of absorption at 517 nm. The proton or electron donating capacity of the derivative was estimated from the fading of deep purple colored methanolic solution of 1, 1-diphenylpicrylhydrazyl (DPPH). Incubation of mixture was done at room temperature for 30 min and measurements were done at 517 against blank. Calculation of percentage inhibition was done by following formula: I\% =AControl-ASample/AControl×100 where, Acontrol is control absorbance; Asample is test absorbance
(In general: DPPH is a stable violet radical that fades when it is reduced.)

Another test addresses T1, Jack bean urease (Canavalia ensiformis, UniProt P07374).
T1 construct: purchased Sigma Aldrich
Nature of the test: biochemical.
Excerpt: as §1
Urease enzyme inhibition investigation studies for all synthesized compounds were done by the method developed by Weatherburn named Indophenol against Jack Bean Urease. Briefly, incubation of solution of Jack bean protein 25 μL was done at temperature of 30 °C for a period of 15 min with 55 μL of buffers solution having 100 mM urea and 5 μL of test solution in 96-well plates. 45 μL phenol solution composing phenol 1% w/v and solution of sodium nitroprusside 0.005% w/v and alkali reagent 70 μL composed of sodium hydroxide 0.5% w/v and active sodium hypochloride solution 0.1% were mixed to every well. The measurement of increase in absorption at 625 nm was done after 50 min by help of a microplate reader (Molecular Device, USA). Readings were recorded in triplicate set in a final volume of 200 μL using thiourea as standard. Each assay was performed at pH 8.2 (0.01 M K2HPO4.3H2O, 0.01 M […] and 1 mM EDTA). Calculation of Inhibition in percentage of synthesized derivatives was done by the formula given as: I\% =AControl-ASample/AControl×100 where, Acontrol is control absorbance; Asample is test absorbance

Test [2] relates to H. pylori bacterium (ATCC 43504, DSM 4867). Nature of the test: Anti-H. pylori activity, well diffusion technique. To be noted: 2500 µg per well, 24–48 h, 35 °C. Type of test: cell-based, Helicobacter pylori. As for the experimental part:
(§2) Compounds M2b and M2i which were found potent in urease inhibition and antioxidant activity as well as in terms of docking score were tested further against antibacterial efficiency against Helicobacter pylori ATCC 43504, DSM 4867 using AHA as a standard and DMSO as control. […] It could be concluded that compound M2i indicated excellent antibacterial action against H. Pylori, antioxidant and urease inhibitory activity.
(§3) Novel synthesized derivatives were investigated against H. pylori bacterium (ATCC 43504 DSM 4867, AHA as standard) for their antibacterial activity by using Well diffusion technique. The stock solution of compounds in DMSO (1000 μg/mL) were prepared. Cell suspension was prepared from culture grown on BHI broth. The cell suspensions of all the cultures were adjusted to 1–2 × 10^5cells/ml. Helicobacter pylori (100 µl) was inoculated by spread plate technique on agar plates (90 mm). Agar wells (5 mm) were made on H. pylori inoculated media and impregnated with 2500 µg of each sample and standard which were incubated @ 35 °C for 24–48 h with 5% CO2 and observed for zone of inhibition around the well. MIC was determined against Helicobacter pylori by micro broth dilution technique as per NCCLS method.
In general terms: Agar diffusion results depend on both activity and mobility in agar.

Test [3] shares this test system. Description: MIC against Helicobacter pylori, micro broth dilution technique. In kind it is cell-based. The note with it: NCCLS method. As for the experimental part: as §2, §3
Background: Broth dilution looks for growth in wells or tubes with falling amounts of substance.

[4] abbreviates: read-out: IC50 urease inhibition, Jack bean urease, indophenol method, pH 8.2, mean SEM.

Converted amounts (≈) assume the structure as drawn. Where two headings read alike, the source gives them in different places.

T1 sequence (P07374 whole entry, looked up): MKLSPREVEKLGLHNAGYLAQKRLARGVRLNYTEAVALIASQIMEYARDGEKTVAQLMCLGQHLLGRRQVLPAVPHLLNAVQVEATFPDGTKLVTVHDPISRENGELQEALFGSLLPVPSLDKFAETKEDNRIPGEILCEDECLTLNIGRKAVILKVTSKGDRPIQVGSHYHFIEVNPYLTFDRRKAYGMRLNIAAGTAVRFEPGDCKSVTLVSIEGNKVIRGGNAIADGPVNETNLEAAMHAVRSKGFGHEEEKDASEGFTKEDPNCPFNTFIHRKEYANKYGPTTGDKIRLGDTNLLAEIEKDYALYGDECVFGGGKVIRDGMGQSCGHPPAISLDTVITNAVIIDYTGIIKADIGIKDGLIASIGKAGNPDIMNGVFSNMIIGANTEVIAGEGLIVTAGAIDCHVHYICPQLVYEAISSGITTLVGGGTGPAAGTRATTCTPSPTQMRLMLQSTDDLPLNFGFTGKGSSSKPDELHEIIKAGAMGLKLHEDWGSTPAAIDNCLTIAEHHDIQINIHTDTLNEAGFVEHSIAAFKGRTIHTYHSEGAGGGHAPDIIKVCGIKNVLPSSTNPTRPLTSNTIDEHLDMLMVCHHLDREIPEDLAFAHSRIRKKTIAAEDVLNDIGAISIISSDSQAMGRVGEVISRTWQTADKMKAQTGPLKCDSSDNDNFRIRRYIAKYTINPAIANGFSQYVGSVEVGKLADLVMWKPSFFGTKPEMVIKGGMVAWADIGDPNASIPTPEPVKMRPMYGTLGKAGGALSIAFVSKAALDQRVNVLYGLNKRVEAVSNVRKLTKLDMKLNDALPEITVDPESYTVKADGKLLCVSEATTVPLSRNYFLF

Consider `Oc1ccc(-c2oc3cc(O)cc(O)c3c(=NC(=S)Nc3ccccc3Cl)c2O)c(O)c1` [Compound M2b, N-(2-chlorophenyl)-N-((4E)-2-(2,4-dihydroxyphenyl)-3,5,7-trihydroxy-4H-chromen-4-ylidene)thiourea], for which the half-inhibitory concentration (IC50) in test [1] stood at 7.37 ± 0.024 µM.
Regarding `Oc1ccc(-c2oc3cc(O)cc(O)c3c(=NC(=S)Nc3ccccc3)c2O)c(O)c1` [Compound M2a, N-((4E)-2-(2,4-dihydroxyphenyl)-3,5,7-trihydroxy-4H-chromen-4-ylidene)-N-phenylthiourea], the results for the IC50 (against Jack bean urease; in test [1]) were 12.71 ± 0.027 µM and 7.795 ± 0.003 µM, respectively.
Taken in the same sequence, the figures for `NC(=S)N/N=c1\c(O)c(-c2ccc(O)cc2O)oc2cc(O)cc(O)c12` [Compound M3, (1Z)-1-(3,5,7-trihydroxy-2-(2,4-dihydroxyphenyl)-4H-chromen-4-ylidene)thiosemicarbazide] were 17.9 ± 0.007 µM and 11.9 ± 0.031 µM.
The compound `CC(=O)NO` [AHA, acetohydroxamic acid] showed a zone of inhibition in test [2] of 9.00 ± 0.50 mm. Further, the MIC in test [3] came out at 1000 µg/mL (≈ 13.3 mM).
On to `Oc1ccc(-c2oc3cc(O)cc(O)c3/c(=N/C(=S)NNc3ccccc3)c2O)c(O)c1` [Compound M4, (4Z)-4-(3,5,7-trihydroxy-2-(2,4-dihydroxyphenyl)-4H-chromen-4-ylidene)-1-phenylthiosemicarbazide], for which the IC50 against Jack bean urease amounted to 18.96 ± 0.011 µM; in test [1] it was 8.099 ± 0.018 µM.
Take `Oc1ccc(-c2oc3cc(O)cc(O)c3/c(=N/Nc3ccccc3)c2O)c(O)c1` [Compound M5, (4Z)-2-(2,4-dihydroxyphenyl)-4-(2-phenylhydrazinylidene)-4H-chromene-3,5,7-triol]: the IC50 against Jack bean urease is 17.68 ± 0.08 µM; in test [1], 8.78 ± 0.008 µM.
`O=[N+]([O-])c1cccc(NC(=S)N=c2c(O)c(-c3ccc(O)cc3O)oc3cc(O)cc(O)c23)c1` [Compound M2d, N-((4E)-2-(2,4-dihydroxyphenyl)-3,5,7-trihydroxy-4H-chromen-4-ylidene)-N-(3-nitrophenyl)thiourea]: the IC50 at Jack bean urease (setting [4]) amounted to 20.41 ± 0.031 µM; in test [1], 11.56 ± 0.013 µM.
Take `O=c1c(O)c(-c2ccc(O)cc2O)oc2cc(O)cc(O)c12` [Morin, 3,5,7, 2′, 4′-pentahydroxyflavone]: the IC50 on Jack bean urease was 21.77 ± 0.016 µM; in test [1] it was 12.83 ± 0.028 µM.
With `O=[N+]([O-])c1ccccc1NC(=S)N=c1c(O)c(-c2ccc(O)cc2O)oc2cc(O)cc(O)c12` [Compound M2c, N-((4E)-2-(2,4-dihydroxyphenyl)-3,5,7-trihydroxy-4H-chromen-4-ylidene)-N-(2-nitrophenyl)thiourea], the IC50 on Jack bean urease (setting [4]) turned out to be 19.5 ± 0.005 µM; in test [1], 10.18 ± 0.006 µM.
Regarding `O=[N+]([O-])c1ccc(NC(=S)N=c2c(O)c(-c3ccc(O)cc3O)oc3cc(O)cc(O)c23)cc1` [Compound M2e, N-((4E)-2-(2,4-dihydroxyphenyl)-3,5,7-trihydroxy-4H-chromen-4-ylidene)-N-(4-nitrophenyl)thiourea], the IC50 at Jack bean urease (setting [4]) turned out to be 20.2 ± 0.01 µM; in test [1], 8.744 ± 0.008 µM.
`O=C1O[C@H]([C@@H](O)CO)C(O)=C1O` [Ascorbic acid, reference compound] returned an IC50 in test [1] of 8.59 ± 0.004 µM.
Regarding `NC(N)=S` [Thiourea, reference compound], the IC50 at Jack bean urease (Jack bean urease, indophenol method, pH 8.2, mean SEM, read-out: IC50 urease inhibition) was found to be 22.8 ± 0.011 µM.
